Values quoted from earlier work as cited in patent US7491713B2, “CGRP receptor antagonists” (Merck + Co., Inc., priority 2004, dated 2009).
Ends that are not written are not given here.

Key:
[1] = tested on: marmoset; conditions: marmoset (Doods et al. 2000)
[2] = tested on: rats; conditions: prior administration (Williamson et al. 1997)
[3] = tested on: rat; conditions: rat (Escott et al. 1995)

Molecule	effect on stimulation-induced increase of facial blood flow [1]	effect on stimulation-induced increase of middle meningeal artery diameter [2]	effect on stimulation-induced increase of facial blood flow [3]
NCCCC[C@H](NC(=O)[C@@H](Cc1cc(Br)c(O)c(Br)c1)NC(=O)N1CCC(N2Cc3ccccc3NC2=O)CC1)C(=O)N1CCN(c2ccncc2)CC1 [BIBN4096BS]	blocked		
CGRP(8-37): a fragment of CGRP that lacks seven N-terminal amino acid residues; a peptide CGRP antagonist (VTHRLAGLLSRSGGVVKNNFVPTNVGSKAF; ends and bridges not checked; UniProt P06881 90-119, looked up, fragment)		blocked	inhibited
